Experimental data as given in PMC9866191, “Novel 9-Benzylaminoacridine Derivatives as Dual Inhibitors of Phosphodiesterase 5 and Topoisomerase II for the Treatment of Colon Cancer” (Molecules, 2023).

Assays:
HCT-116 cells [1] = test: Cell cycle analysis (PI, flow cytometry); type: cell-based, human; details: 10 µM, 24 h, PI staining
Description: To analyze cell cycle changes, cells permeated at 1 × 10^6 × cells/mL were trypsinized and diluted and then fixed in 70% ethanol at 4 °C. Cell cycle arrest in HCT-116 cells following compound exposure was accomplished using propidium iodide (Sigma-Aldrich, St. Louis, MI, USA). The markers were then assessed using a FACS-Caliburflow cytometer (Beckman Coulter, Taipei, Taiwan) and analyzed using WinMDI software. […]
(§1) Figure 3 Apoptosis induction and cell cycle effects of compounds in HCT-116 cells. (A) The apoptotic population of HCT-116 cells was analyzed using flow cytometry after treatment with 10 µM of the test compound for 24 h followed by Annexin V/propidium iodide (PI) staining. (B) After treatment with compound concentrations of 10 µM for 24 h, cells were fixed, stained with propidium iodide (PI), and analyzed for cell cycle distribution. Results are expressed as the means ± SD from three independent experiments (* p < 0.05 and ** p < 0.01 *** p < 0.001, control versus compound).

DU-145 = test: NCI-60 one-dose screen; type: cell-based; details: Homo sapiens; DU-145, Prostate Cancer panel; single dose 10^−5 M; read-out: Growth inhibition %
HCC-2998 = test: NCI-60 one-dose screen; type: cell-based; details: Homo sapiens; HCC-2998, Colon Cancer panel; single dose 10^−5 M; read-out: Growth inhibition %
SR = test: NCI-60 one-dose screen; type: cell-based; details: Homo sapiens, Leukemia panel, single dose 10^−5 M, read-out: Growth inhibition %
human DNA Topo II = target: T1, human DNA Topo II (Homo sapiens, UniProt P11388); test: Topo II-mediated relaxation of supercoiled pHOT1 plasmid DNA; type: biochemical; details: for DNA band pattern in Topo II relaxation assay: at 1 and 5 µM doses, similar to doxorubicin; for concentration at which Topo II inhibition (increase of supercoiled DNA) is shown: cell-free relaxation assay, gel
T1 construct: purchased Topogen, Columbus, OH, USA
T1 sequence (P11388 whole entry): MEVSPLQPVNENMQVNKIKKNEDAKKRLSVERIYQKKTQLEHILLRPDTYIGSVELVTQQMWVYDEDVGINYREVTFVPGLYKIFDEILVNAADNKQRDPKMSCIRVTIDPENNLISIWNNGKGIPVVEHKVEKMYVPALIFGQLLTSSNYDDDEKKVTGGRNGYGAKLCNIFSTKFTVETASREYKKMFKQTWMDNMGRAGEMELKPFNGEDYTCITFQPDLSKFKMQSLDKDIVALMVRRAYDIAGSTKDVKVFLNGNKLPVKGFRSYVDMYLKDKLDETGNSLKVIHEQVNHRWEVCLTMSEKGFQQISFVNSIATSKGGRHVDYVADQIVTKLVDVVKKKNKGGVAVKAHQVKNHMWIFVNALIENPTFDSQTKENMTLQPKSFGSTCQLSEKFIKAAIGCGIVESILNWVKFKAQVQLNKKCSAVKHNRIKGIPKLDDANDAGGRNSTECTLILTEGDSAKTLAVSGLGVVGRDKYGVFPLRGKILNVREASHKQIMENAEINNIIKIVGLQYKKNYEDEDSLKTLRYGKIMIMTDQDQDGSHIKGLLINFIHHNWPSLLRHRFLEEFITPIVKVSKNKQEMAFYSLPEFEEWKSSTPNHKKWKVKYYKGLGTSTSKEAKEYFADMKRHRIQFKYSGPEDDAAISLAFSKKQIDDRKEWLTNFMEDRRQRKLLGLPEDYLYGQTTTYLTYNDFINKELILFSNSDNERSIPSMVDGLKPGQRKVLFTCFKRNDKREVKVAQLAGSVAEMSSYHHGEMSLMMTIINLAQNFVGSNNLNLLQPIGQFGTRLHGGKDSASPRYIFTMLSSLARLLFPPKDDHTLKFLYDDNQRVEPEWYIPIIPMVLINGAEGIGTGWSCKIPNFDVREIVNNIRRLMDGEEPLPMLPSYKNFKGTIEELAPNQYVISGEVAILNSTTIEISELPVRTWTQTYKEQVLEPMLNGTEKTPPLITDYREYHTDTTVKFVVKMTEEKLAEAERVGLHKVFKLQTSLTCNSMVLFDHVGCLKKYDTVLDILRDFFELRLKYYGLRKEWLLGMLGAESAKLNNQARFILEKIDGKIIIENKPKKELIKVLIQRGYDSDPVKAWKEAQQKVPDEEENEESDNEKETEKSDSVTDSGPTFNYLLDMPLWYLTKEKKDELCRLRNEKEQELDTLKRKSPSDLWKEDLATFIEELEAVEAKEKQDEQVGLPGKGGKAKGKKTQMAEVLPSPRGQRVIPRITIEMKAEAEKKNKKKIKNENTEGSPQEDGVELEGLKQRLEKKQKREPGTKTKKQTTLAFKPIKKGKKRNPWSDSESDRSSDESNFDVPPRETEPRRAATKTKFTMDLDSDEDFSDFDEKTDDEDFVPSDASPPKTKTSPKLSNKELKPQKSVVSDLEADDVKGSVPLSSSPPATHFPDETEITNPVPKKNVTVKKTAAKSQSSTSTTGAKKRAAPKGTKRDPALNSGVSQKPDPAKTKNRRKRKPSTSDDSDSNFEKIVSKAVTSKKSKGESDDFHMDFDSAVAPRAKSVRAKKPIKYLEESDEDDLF
Description: Consequently, the effects of the synthesized compounds on Topo II activity were evaluated with a cell-free assay using a purified human DNA Topo II-protein-mediated relaxation of the negatively supercoiled pHOT1 plasmid DNA [40]. […] Two Topo II inhibitors (doxorubicin and etoposide) were used as positive controls.
The reaction was terminated by adding 2 μL of 10% SDS, followed by 2.5 μL of proteinase K (50 μg/mL) to digest the bound protein. The system was incubated at 37 °C for 15 min. The DNA product was finally analyzed using electrophoresis on a vertical 1.5% agarose gel at 2 volts/cm in 1 × TAE buffer and photographed using the Eagle Eye II system (Stratagene, La Jolla, CA, USA).
Figure 2 Effects of compounds on topoisomerase II activity. Effects on Topo II-mediated relaxation of supercoiled pHOT1 plasmid DNA in a cell-free system. Positive control: etoposide (10 µM); doxorubicin (5 µM) used as Topo II poison (induction of linear DNA); DNA relaxation: plasmid DNA + topo IIα + solvent control. Nick, nicked DNA; Sc, supercoiled DNA; Lin, linear DNA.

HCT-116 cells [2] = test: Annexin-V/PI apoptosis assay; type: cell-based, human; details: 10 µM, 24 h
Description: For the same set of compounds, the apoptosis-inducing effects in HCT-116 cells were assessed using Annexin-V/PI double staining at 10 µM (Figure 3).
The number of apoptotic/necrotic cells was analyzed using flow cytometry following the manufacturer’s protocol. Markers were assessed using a FACS-Caliburflow cytometer (Beckman Coulter, Taipei, Taiwan) and analyzed using WinMDI 2.8 software.
as §1

Row | SMILES | effect on cell cycle (HCT-116 cells [1]) | inhibition at 10 µM (DU-145) [%] | inhibition at 10 µM (HCC-2998) [%] | inhibition at 10 µM (SR) [%] | melting point [°C] | DNA band pattern in Topo II relaxation assay (human DNA Topo II) | concentration at which Topo II inhibition (increase of supercoiled DNA) is shown (human DNA Topo II) [µM] | induction of apoptosis (HCT-116 cells [2])
1 | c1ccc(CNc2c3ccccc3nc3ccccc23)cc1 [Compound 1, Acridin-9-yl-benzyl-amine] | arrested the cell cycle in the S phase | 51.4 | 61.8 | 88.3 | – | – | – | –
2 | Cc1ccccc1CNc1c2ccccc2nc2ccccc12 [Compound 2, Acridin-9-yl-(2-methylbenzyl)-amine] | cell cycle arrest in the G2/M phase | 69.4 | 83.8 | 97.3 | – | – | – | –
3 | Cc1cccc(CNc2c3ccccc3nc3ccccc23)c1 [Compound 3, Acridin-9-yl-(3-methylbenzyl)-amine] | cell cycle arrest in the G2/M phase | 66.1 | 96.4 | 103 | – | – | – | –
4 | Cc1ccc(CNc2c3ccccc3nc3ccccc23)cc1 [Compound 4, Acridin-9-yl-(4-methylbenzyl)-amine] | increased the number of cells in the S phase and G2/M phase | 66.5 | 103 | 101 | – | – | – | –
5 | COc1ccccc1CNc1c2ccccc2nc2ccccc12 [Compound 5, Acridin-9-yl-(2-methoxybenzyl)-amine] | does not affect the cell cycle | 49.5 | 61.1 | 90.1 | – | – | – | –
6 | COc1cccc(CNc2c3ccccc3nc3ccccc23)c1 [Compound 6, Acridin-9-yl-(3-methoxybenzyl)-amine] | – | 46.7 | 60.7 | 91.6 | 107 to 109 | – | – | –
7 | COc1ccc(CNc2c3ccccc3nc3ccccc23)cc1 [Compound 7, Acridin-9-yl-(4-methoxybenzyl)-amine] | – | 52 | 61.4 | 93 | 116 to 118 | – | – | –
8 | Fc1ccccc1CNc1c2ccccc2nc2ccccc12 [Compound 8, Acridin-9-yl-(2-fluorobenzyl)-amine] | cell cycle arrest in the G2/M phase | 38.1 | 52 | 82 | – | larger base pair band than nicked DNA | – | –
9 | Fc1cccc(CNc2c3ccccc3nc3ccccc23)c1 [Compound 9, Acridin-9-yl-(3-fluorobenzyl)-amine] | cell cycle arrest in the G2/M phase | 58.3 | 70.1 | 80.9 | – | larger base pair band than nicked DNA | – | –
10 | Fc1ccc(CNc2c3ccccc3nc3ccccc23)cc1 [Compound 10, Acridin-9-yl-(4-fluorobenzyl)-amine] | increased the number of cells in the S phase and G2/M phase | 65.1 | 81.7 | 93.4 | – | – | – | –
11 | Clc1ccccc1CNc1c2ccccc2nc2ccccc12 [Compound 11, Acridin-9-yl-(2-chlorobenzyl)-amine] | cell cycle arrest in the G2/M phase | 68.2 | 117 | 99.5 | – | larger base pair band than nicked DNA | 0.04 | –
12 | Clc1cccc(CNc2c3ccccc3nc3ccccc23)c1 [Compound 12, Acridin-9-yl-(3-chlorobenzyl)-amine] | cell cycle arrest in the G2/M phase | 68.3 | 154 | 104 | – | – | 0.2 | –
13 | Clc1ccc(CNc2c3ccccc3nc3ccccc23)cc1 [Compound 13, Acridin-9-yl-(4-chlorobenzyl)-amine] | cell cycle arrest in the G2/M phase | 45.2 | 110 | 97.7 | 145 to 147 | – | – | –
14 | c1coc(CNc2c3ccccc3nc3ccccc23)c1 [Compound 14, Acridin-9-yl-furan-2-ylmethyl-amine] | arrested the cell cycle in the S phase | 24 | 31.1 | 66 | – | larger base pair band than nicked DNA | – | 20%–50%
15 | COc1cccc(CNc2c3ccccc3nc3ccccc23)c1OC [Compound 16, Acridin-9-yl-(2,3-dimethoxybenzyl)-amine] | – | 58.2 | 61.7 | 82.5 | 175 to 177 | – | – | –
16 | COc1ccc(CNc2c3ccccc3nc3ccccc23)c(OC)c1 [Compound 17, Acridin-9-yl-(2,4-dimethoxybenzyl)-amine] | – | 50.6 | 64.4 | 81.9 | 170 to 172 | – | – | –
17 | COc1ccc(CNc2c3ccccc3nc3ccccc23)cc1OC [Compound 18, Acridin-9-yl-(3,4-dimethoxybenzyl)-amine] | increased the number of cells in the S phase and G2/M phase | 75.3 | 69.9 | 91.4 | – | larger base pair band than nicked DNA | – | 20%–50%
18 | COc1ccc(CNc2c3ccccc3nc3ccccc23)cc1F [Compound 19, Acridin-9-yl-(3-fluoro-4-methoxybenzyl)-amine] | – | 72.8 | 94.2 | 95.2 | 145 to 147 | – | – | –
19 | Fc1cccc(CNc2c3ccccc3nc3ccccc23)c1F [Compound 20, Acridin-9-yl-(2,3-difluorobenzyl)-amine] | cell cycle arrest in the S phase and reduced the percentage of cells in the G2/M phase | 23.3 | 41.6 | 61.8 | – | larger base pair band than nicked DNA | – | 20%–50%
20 | Fc1ccc(CNc2c3ccccc3nc3ccccc23)c(F)c1 [Compound 21, Acridin-9-yl-(2,4-difluorobenzyl)-amine] | cell cycle arrest in the G2/M phase | 49.1 | 58.7 | 74.8 | – | larger base pair band than nicked DNA | – | less than 20%
21 | Fc1ccc(CNc2c3ccccc3nc3ccccc23)cc1F [Compound 22, Acridin-9-yl-(3,4-difluorobenzyl)-amine] | cell cycle arrest in the G2/M phase | 60.5 | 97.8 | 83 | – | larger base pair band than nicked DNA | – | less than 20%
22 | c1ccc(CCNc2c3ccccc3nc3ccccc23)cc1 [Compound 23, Acridin-9-yl-phenethyl-amine] | – | 62 | 58.6 | 79.1 | 151 to 153 | – | – | –
23 | COc1ccc2nc3ccccc3c(NCc3ccc(C)cc3)c2c1 [Compound 26, (2-Methoxyacridin-9-yl)-(4-methylbenzyl)-amine] | – | 78.4 | 158 | 113 | 131 to 133 | – | – | –
24 | COc1ccc(CNc2c3ccccc3nc3ccc(OC)cc23)cc1 [Compound 27, (2-Methoxyacridin-9-yl)-(4-methoxybenzyl)-amine] | – | 80 | 158 | 116 | 168 to 170 | – | – | –
25 | COc1ccc2nc3ccccc3c(NCc3ccc(Cl)cc3)c2c1 [Compound 29, (4-Chlorobenzyl)-(2-methoxyacridin-9-yl)-amine] | – | 78.5 | 188 | 130 | 178 to 180 | – | – | –
